This passage reports Relative influx, IC50 and Ki results from ChEMBL document CHEMBL1126220, “Synthesis and antifolate properties of 5,10-ethano-5,10-dideazaaminopterin” (J Med Chem, 1992).

Experiment [1] in a line: Influx with respect to the MTX. Format: functional.
A further experiment concerns L1210. The experiment in a line: Concentration required to inhibit 50% growth of L1210 cells in culture. The class given is functional, cell-based. Conditions: Mus musculus.
The target in another experiment is T1, Dihydrofolate reductase (Mus musculus, UniProt P00375).
T1 sequence (P00375 whole entry): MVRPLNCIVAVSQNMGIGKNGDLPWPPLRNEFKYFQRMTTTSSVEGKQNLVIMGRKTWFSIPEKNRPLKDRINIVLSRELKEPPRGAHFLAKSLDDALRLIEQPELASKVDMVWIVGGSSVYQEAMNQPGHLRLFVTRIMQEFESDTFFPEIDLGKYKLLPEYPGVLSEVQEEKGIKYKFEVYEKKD
The experiment in a line: Inhibition of the dihydrofolate reductase enzyme(DHFR) derived from L1210 murine leukemia cells. The class given is cell-based.

On to `CCC(Cc1cnc2nc(N)nc(N)c2c1)c1ccc(C(=O)NC(CCC(=O)O)C(=O)O)cc1` (stereo not given), for which the Relative influx in experiment [1] came out at 1.32.

Take `CC(Cc1cnc2nc(N)nc(N)c2c1)c1ccc(C(=O)NC(CCC(=O)O)C(=O)O)cc1` (stereo not given): the Relative influx in experiment [1] amounted to 1.43.

Molecule `Nc1nc(N)c2c3c(cnc2n1)CC(c1ccc(C(=O)NC(CCC(=O)O)C(=O)O)cc1)CC3` (stereo not given) showed an IC50 with L1210 of 4.5 nM. The molecule further gave a Relative influx in experiment [1] of 3.3. At Dihydrofolate reductase, the affinity, expressed as Ki, was 0.017 nM.
